{
  "source": "patent US11807625B2",
  "about": "“Capsid inhibitors for the prevention of HIV” (Gilead Sciences, Inc., priority 2019, dated 2023)",
  "experiment": "PK of compound of Formula (Ia) after single intramuscular dose of solution formulations in Wistar Han rats",
  "assay_type": "in vivo",
  "details": "for Plasma concentration: 0 h; for Plasma concentration / concentration at 48 h / concentration at 1 h / concentration at 24 h / concentration at 72 h / concentration at 96 h / concentration at 168 h / concentration at 3 h / concentration at 8 h: IM 100 mg/kg; for concentration at 48 h / concentration at 1 h / concentration at 24 h / concentration at 72 h / concentration at 96 h / concentration at 168 h / AUC(0-t) / concentration at 3 h / concentration at 8 h: Wistar Han, rat, plasma, 100 mg/kg; for concentration at 48 h / concentration at 1 h / concentration at 24 h / concentration at 72 h / concentration at 96 h / concentration at 168 h / concentration at 3 h / concentration at 8 h: intramuscular; for AUC(0-t): im, single IM 100 mg/kg, male Wistar Han rats, mean ± SD",
  "procedure": "Formulations containing the compound of Formula (Ia), or a pharmaceutically acceptable salt thereof, were prepared as solutions and optionally administered subcutaneously or intramuscularly to rats, rabbits, and/or dogs.\nA solution of about 400 mg/ml of the compound of Formula (Ia) having 21.13 w/w % water, 45.25 w/w % PEG 300, and 33.61 w/w % of a sodium salt of a compound of Formula (Ia) was prepared. The solution was administered intramuscularly to Wistar Han rats at a dose of about 100 mg/kg and beagle dogs at a dose of about 30 mg/kg.\nA solution of about 400 mg/ml of the compound of Formula (Ia) having 19.18 w/w % water, 41.09 w/w % PEG 300, 33.61 w/w % of a sodium salt of a compound of Formula (Ia), and 6.12 w/w % poloxamer 188 was prepared. The solution was administered intramuscularly to Wistar Han rats at a dose of about 100 mg/kg and beagle dogs at a dose of about 30 mg/kg.\nA solution of about 500 mg/ml of the compound of Formula (Ia) having 16.93 w/w % water, 36.22 w/w % PEG 300, 41.85 w/w % of a sodium salt of a compound of Formula (Ia), and 5.00% ethanol was prepared. The solution was administered intramuscularly to Wistar Han rats at a dose of about 100 mg/kg and beagle dogs at a dose of about 30 mg/kg.\nA solution of about 500 mg/ml of the compound of Formula (Ia) having 14.50 w/w % water, 31.04 w/w % PEG 300, 41.85 w/w % of a sodium salt of a compound of Formula (Ia), 5.00% ethanol, and 7.61 w/w % poloxamer 188 was prepared. The solution was administered intramuscularly to Wistar Han rats at a dose of about 100 mg/kg and beagle dogs at a dose of about 30 mg/kg.",
  "key": {"[1]": {"details": "Solution H (~400 mg/mL), Wistar Han rats, mean, n = 4, read-out: Plasma concentration, Mean"}, "[2]": {"details": "Solution K (~500 mg/mL, ethanol), Wistar Han rats, individual animals #1-#4, read-out: Plasma concentration"}, "[3]": {"details": "Solution K (~500 mg/mL, ethanol), Wistar Han rats, mean, n = 4, read-out: Plasma concentration, Mean"}, "[4]": {"details": "male, individual rats, solution M, 500 mg/mL, read-out: Plasma concentration"}, "[5]": {"details": "male, mean, n = 4 rats, solution M, 500 mg/mL, read-out: Plasma concentration"}, "[6]": {"details": "male, Solution H (~400 mg/mL), Wistar Han rats, mean, n = 4, read-out: Plasma concentration, Mean"}, "[7]": {"details": "male, Solution J (~400 mg/mL, poloxamer 188), Wistar Han rats, individual animals #1-#4, read-out: Plasma concentration"}, "[8]": {"details": "male, Solution J (~400 mg/mL, poloxamer 188), Wistar Han rats, mean, n = 4, read-out: Plasma concentration, Mean"}, "[9]": {"details": "male, Solution K (~500 mg/mL, ethanol), Wistar Han rats, individual animals #1-#4, read-out: Plasma concentration"}, "[10]": {"details": "male, Solution K (~500 mg/mL, ethanol), Wistar Han rats, mean, n = 4, read-out: Plasma concentration, Mean"}},
  "note": "Read-outs that look alike come from different tables or passages of the source.",
  "data": [
    {"smiles": "CC(C)(C#Cc1ccc(-c2ccc(Cl)c3c(NS(C)(=O)=O)nn(CC(F)(F)F)c23)c([C@H](Cc2cc(F)cc(F)c2)NC(=O)Cn2nc(C(F)(F)F)c3c2C(F)(F)[C@@H]2C[C@H]32)n1)S(C)(=O)=O", "note": "[compound of Formula (Ia)]", "values": [
      {"measurement": "Plasma concentration", "setting": "individual rats, solution M, 500 mg/mL", "value": "BLQ"},
      {"measurement": "Plasma concentration", "setting": "Solution H (~400 mg/mL), Wistar Han rats, individual animals #1-#4", "value": "BLQ"},
      {"measurement": "Plasma concentration", "setting": "Solution J (~400 mg/mL, poloxamer 188), Wistar Han rats, individual animals #1-#4", "value": "BLQ"},
      {"measurement": "Plasma concentration", "setting": "Solution K (~500 mg/mL, ethanol), Wistar Han rats, individual animals #1-#4", "value": "BLQ"},
      {"measurement": "concentration at 48 h", "setting": "Solution H (~400 mg/mL), Wistar Han rats, individual animals #1-#4, read-out: Plasma concentration", "value": 354, "unit": "nM"},
      {"measurement": "concentration at 1 h", "setting": "[1]", "value": 150, "unit": "nM"},
      {"measurement": "concentration at 24 h", "setting": "[1]", "value": 439, "unit": "nM"},
      {"measurement": "concentration at 48 h", "setting": "[1]", "value": 471, "unit": "nM"},
      {"measurement": "concentration at 72 h", "setting": "[1]", "value": 397, "unit": "nM"},
      {"measurement": "concentration at 96 h", "setting": "[1]", "value": 477, "unit": "nM"},
      {"measurement": "concentration at 168 h", "setting": "[1]", "value": 588, "unit": "nM"},
      {"measurement": "concentration at 72 h", "setting": "[2]", "value": 516, "unit": "nM"},
      {"measurement": "concentration at 96 h", "setting": "[2]", "value": 537, "unit": "nM"},
      {"measurement": "concentration at 168 h", "setting": "[2]", "value": 640, "unit": "nM"},
      {"measurement": "concentration at 1 h", "setting": "[3]", "value": 146, "unit": "nM"},
      {"measurement": "concentration at 72 h", "setting": "[3]", "value": 433, "unit": "nM"},
      {"measurement": "concentration at 96 h", "setting": "[3]", "value": 401, "unit": "nM"},
      {"measurement": "concentration at 168 h", "setting": "[3]", "value": 507, "unit": "nM"},
      {"measurement": "AUC(0-t)", "setting": "male, Solution H (~400 mg/mL; Na salt, water, PEG 300), n = 4, read-out: AUC0-24h", "value": "7.59 ± 2.93", "unit": "µM·h"},
      {"measurement": "AUC(0-t)", "setting": "male, Solution H (~400 mg/mL; Na salt, water, PEG 300), n = 4, read-out: AUC0-168h", "value": "77.7 ± 26.1", "unit": "µM·h"},
      {"measurement": "AUC(0-t)", "setting": "male, Solution J (~400 mg/mL; Na salt, water, PEG 300, poloxamer 188), n = 4, read-out: AUC0-24h", "value": "12.1 ± 1.9", "unit": "µM·h"},
      {"measurement": "AUC(0-t)", "setting": "male, Solution J (~400 mg/mL; Na salt, water, PEG 300, poloxamer 188), n = 4, read-out: AUC0-168h", "value": "82.5 ± 8.7", "unit": "µM·h"},
      {"measurement": "AUC(0-t)", "setting": "male, Solution K (~500 mg/mL; Na salt, water, PEG 300, ethanol), n = 4, read-out: AUC0-24h", "value": "6.13 ± 1.7", "unit": "µM·h"},
      {"measurement": "AUC(0-t)", "setting": "male, Solution K (~500 mg/mL; Na salt, water, PEG 300, ethanol), n = 4, read-out: AUC0-168h", "value": "67.4 ± 15.7", "unit": "µM·h"},
      {"measurement": "AUC(0-t)", "setting": "male, Solution M (~500 mg/mL; Na salt, water, PEG 300, ethanol, poloxamer 188), n = 4, read-out: AUC0-24h", "value": "13.4 ± 2.4", "unit": "µM·h"},
      {"measurement": "AUC(0-t)", "setting": "male, Solution M (~500 mg/mL; Na salt, water, PEG 300, ethanol, poloxamer 188), n = 4, read-out: AUC0-168h", "value": "92.9 ± 9.6", "unit": "µM·h"},
      {"measurement": "concentration at 1 h", "setting": "[4]", "value": 177, "unit": "nM"},
      {"measurement": "concentration at 1 h", "setting": "[5]", "value": 184, "unit": "nM"},
      {"measurement": "concentration at 3 h", "setting": "[4]", "value": 304, "unit": "nM"},
      {"measurement": "concentration at 3 h", "setting": "[5]", "value": 405, "unit": "nM"},
      {"measurement": "concentration at 8 h", "setting": "[4]", "value": 443, "unit": "nM"},
      {"measurement": "concentration at 8 h", "setting": "[5]", "value": 544, "unit": "nM"},
      {"measurement": "concentration at 24 h", "setting": "[4]", "value": 737, "unit": "nM"},
      {"measurement": "concentration at 24 h", "setting": "[5]", "value": 750, "unit": "nM"},
      {"measurement": "concentration at 48 h", "setting": "[4]", "value": 623, "unit": "nM"},
      {"measurement": "concentration at 48 h", "setting": "[5]", "value": 622, "unit": "nM"},
      {"measurement": "concentration at 72 h", "setting": "[5]", "value": 426, "unit": "nM"},
      {"measurement": "concentration at 96 h", "setting": "[4]", "value": 593, "unit": "nM"},
      {"measurement": "concentration at 96 h", "setting": "[5]", "value": 526, "unit": "nM"},
      {"measurement": "concentration at 168 h", "setting": "[4]", "value": 504, "unit": "nM"},
      {"measurement": "concentration at 168 h", "setting": "[5]", "value": 560, "unit": "nM"},
      {"measurement": "concentration at 3 h", "setting": "male, Solution H (~400 mg/mL), Wistar Han rats, individual animals #1-#4, read-out: Plasma concentration", "value": 179, "unit": "nM"},
      {"measurement": "concentration at 3 h", "setting": "[6]", "value": 245, "unit": "nM"},
      {"measurement": "concentration at 8 h", "setting": "[6]", "value": 285, "unit": "nM"},
      {"measurement": "concentration at 3 h", "setting": "[7]", "value": 463, "unit": "nM"},
      {"measurement": "concentration at 8 h", "setting": "[7]", "value": 510, "unit": "nM"},
      {"measurement": "concentration at 24 h", "setting": "[7]", "value": 761, "unit": "nM"},
      {"measurement": "concentration at 48 h", "setting": "[7]", "value": 716, "unit": "nM"},
      {"measurement": "concentration at 72 h", "setting": "[7]", "value": 526, "unit": "nM"},
      {"measurement": "concentration at 96 h", "setting": "[7]", "value": 506, "unit": "nM"},
      {"measurement": "concentration at 168 h", "setting": "[7]", "value": 481, "unit": "nM"},
      {"measurement": "concentration at 1 h", "setting": "[8]", "value": 249, "unit": "nM"},
      {"measurement": "concentration at 3 h", "setting": "[8]", "value": 445, "unit": "nM"},
      {"measurement": "concentration at 8 h", "setting": "[8]", "value": 507, "unit": "nM"},
      {"measurement": "concentration at 24 h", "setting": "[8]", "value": 605, "unit": "nM"},
      {"measurement": "concentration at 48 h", "setting": "[8]", "value": 558, "unit": "nM"},
      {"measurement": "concentration at 72 h", "setting": "[8]", "value": 452, "unit": "nM"},
      {"measurement": "concentration at 96 h", "setting": "[8]", "value": 461, "unit": "nM"},
      {"measurement": "concentration at 168 h", "setting": "[8]", "value": 467, "unit": "nM"},
      {"measurement": "concentration at 24 h", "setting": "[9]", "value": 438, "unit": "nM"},
      {"measurement": "concentration at 48 h", "setting": "[9]", "value": 439, "unit": "nM"},
      {"measurement": "concentration at 3 h", "setting": "[10]", "value": 209, "unit": "nM"},
      {"measurement": "concentration at 8 h", "setting": "[10]", "value": 218, "unit": "nM"},
      {"measurement": "concentration at 24 h", "setting": "[10]", "value": 361, "unit": "nM"},
      {"measurement": "concentration at 48 h", "setting": "[10]", "value": 376, "unit": "nM"}
    ]}
  ]
}
